The results in this text go back to patent US4216221A, “1,3-Disubstituted (2-thio)ureas” (U C B, Societe Anonyme, priority 1977, dated 1980).

Each structure is given as a SMILES string. Read-outs that look alike come from different tables or passages of the source.

Data set [1] is described as follows: Toxicity by intraperitoneal administration (Irwin's test). As to conditions: for Dose mg/kg (dose which brings about the death of one animal out of eight in Irwin's test): mouse. Format: in vivo. An excerpt: The compounds tested have a remarkably low toxicity.
*Dose which brings about the death of one animal out of eight in Irwin's
test (S. IRWIN, Gordon Research Conference on Medicinal Chemistry, Colby
Junior College, New London, 1959).

The nature of data set [2]: active avoidance test (memory retention; paw withdrawal reaction threshold). Format: in vivo, rat. Conditions: sc, rat, subcutaneous, tested 24 hours later. An excerpt: The pressure at which the withdrawal reaction takes place is called the reaction threshold. This threshold is expressed by the figure read on a scale graduated in cm of the apparatus used (Analgesy-meter Ugo Basile, Milan) and thus corresponds to the minimum pressure which brings about withdrawal when applied to the animal's paw.

Data set [3] is described as follows: Protection against aggressions of the hypoxic type (mortality induced by oxydipentonium chloride). Format: in vivo, mice. Conditions: Mus musculus, ip, 1 h, mice, intraperitoneal, one hour before the curarizer, 2/10 (28), read-out: Proportion of survivors, Animals treated; for responders at 100 µM, 100 µmol/kg: 0.1 mM/kg, control animals 3/20 (1), 1/10 (2, 18, 26), 0/10 (14, 32); for responders at 320 µM, 320 µmol/kg: 0.32 mM/kg, control animals 1/10 (18), 0/10 (32, piracetam). The protocol:
Protection against aggressions of the hypoxic type was shown by a reduction of mortality induced by a curarizer, the action time of which is short, namely oxydipentonium chloride (Brevatonal). At the doses used, this curarizer brings about respiratory depression which, in turn, gives rise to a hypoxi-hypercapnic syndrome.
A compound capable of protecting the brain during this short period of hypoxia ensures survival. The compounds are administered to groups of 10 mice one hour before the injection of the curarizer. At the same time, a control group of 10 mice received physiological salt solution before the curarizer. This test has also been developed in our laboratories (see S. LEVIS et al., Arch.Int.Pharmacodyn.Therap.93, (1953,no. 1), 46-54).

[4] abbreviates: read-out: Active dose mM/kg (minimum dose lowering the stimulus below 11 graduations; mM = millimole).
Setting [5] is: read-out: Active dose mg/kg (minimum dose lowering the stimulus below 11 graduations).

Regarding `CC1CC2(CCCCC2)C(=O)N1CNC(=O)NCN1C(=O)C2(CCCCC2)CC1C` (centres unmarked) [compound 17, 1,3-bis[(3-methyl-1-oxo-2-azaspiro[4.5]dec-2-yl)methyl]-urea], in data set [1], the “Dose mM/kg - mouse (dose which brings about the death of one animal out of eight in Irwin's test)” value (“Dose mM/kg - mouse” for short) was determined as 3 mM/kg and the “Dose mg/kg (dose which brings about the death of one animal out of eight in Irwin's test)” value (“Dose mg/kg” for short) was determined as 1255.8 mg/kg.
For the compound `O=C(NCN1CCCCCCC1=O)NCN1CCCC1=O` [compound 33, 1-[(hexahydro-2-oxo-1(2H)-azocinyl)methyl]-3-[(2-oxo-pyrrolidino)methyl]-urea], the minimal effective dose in data set [2] (setting [4]) came out at 5 µmol/kg. Besides, in data set [2] (setting [5]), the minimal effective dose was determined as 1.48 mg/kg. Moreover, in data set [1], the “Dose mM/kg - mouse” value is greater than 3 mM/kg and the “Dose mg/kg” value is on record as greater than 888 mg/kg.
In the case of `O=C(NCN1CCCCCC1=O)NCN1CCCC1=O` [compound 32, 1-[(hexahydro-2-oxo-1H-azepin-1-yl)methyl]-3-[(2-oxo-pyrrolidino)methyl]-urea], in data set [1], the “Dose mM/kg - mouse” value was greater than 3 mM/kg and the “Dose mg/kg” value was greater than 846 mg/kg. In addition, in data set [3], the responders at 100 µM, 100 µmol/kg was found to be 30% and the responders at 320 µM, 320 µmol/kg was determined as 60%.
Consider `O=C1CCCCCN1CNC(=S)NCN1CCCC1=O` [compound 28, 1-[(hexahydro-2-oxo-1H-azepin-1-yl)methyl]-3-[(2-oxo-pyrrolidino)methyl]-2-thiourea], for which, in data set [1], the “Dose mM/kg - mouse” value is reported as 3 mM/kg and the “Dose mg/kg” value is reported as 894 mg/kg. In addition, in data set [3], the responders at 100 µM, 100 µmol/kg was 20% and the responders at 320 µM, 320 µmol/kg is 70%.
As for `O=C(NCN1CCCCC1=O)NCN1CCCCC1=O` [Compound No. 3, 1,3-bis[(2-oxo-piperidino)methyl]-urea], the figures for the minimal effective dose in data set [2] (setting [4]) and in data set [2] (setting [5]) were 0.2 µmol/kg and 0.056 mg/kg, respectively.
Turning to `O=C(NCCCN1CCCC1=O)NCN1CCCC1=O` [Compound No. 2, 1-[(2-oxo-pyrrolidino)methyl]-3-[3-(2-oxo-pyrrolidino)propyl]-urea], in data set [1], the “Dose mM/kg - mouse” value is greater than 3 mM/kg and the “Dose mg/kg” value is on record as greater than 846 mg/kg. For the same compound, in data set [3], the responders at 100 µM, 100 µmol/kg is 60%.
For `CC1CC2(CCCCC2)C(=O)N1CNC(=O)NCN1CCCC1=O` (centres unmarked) [compound 31, 1-[(3-methyl-1-oxo-azaspiro[4.5]dec-2-yl)methyl]-3-[(2-oxo-pyrrolidino)-methyl]-urea], in data set [1], the “Dose mM/kg - mouse” value is 2 mM/kg and the “Dose mg/kg” value is 672.8 mg/kg.
Consider `CC(CNC(=O)NCC(C)N1CCCC1=O)N1CCCC1=O` (centres unmarked) [compound 21, 1,3-bis[2-(2-oxo-pyrrolidino)propyl]-urea], for which, in data set [2] (setting [4]), the minimal effective dose came to 0.01 µmol/kg. The minimal effective dose in data set [2] (setting [5]) was 0.0031 mg/kg. Also, in data set [1], the “Dose mM/kg - mouse” value was greater than 3 mM/kg and the “Dose mg/kg” value is reported as greater than 930 mg/kg.
Take `CCC(NC(=O)NC(CC)N1CCCC1=O)N1CCCC1=O` (centres unmarked) [Compound No. 10, 1,3-bis[1-(2-oxo-pyrrolidino)propyl]-urea]: in data set [1], the “Dose mM/kg - mouse” value was greater than 3 mM/kg and the “Dose mg/kg” value is reported as greater than 930 mg/kg.
`C=CCC1(c2ccccc2)CCN(CNC(=O)NCN2CCC(CC=C)(c3ccccc3)C2=O)C1=O` (centres unmarked) [compound 15, 1,3-bis[(3-allyl-2-oxo-3-phenyl-pyrrolidino)methyl]-urea]: the minimal effective dose in data set [2] (setting [4]) stood at 1 µmol/kg. For the same compound, in data set [2] (setting [5]), the minimal effective dose amounted to 0.486 mg/kg. Besides, in data set [1], the “Dose mM/kg - mouse” value was greater than 3 mM/kg and the “Dose mg/kg” value worked out at 1459.5 mg/kg.
Turning to `CCCCC1CCN(CNC(=S)NCN2CCC(CCCC)C2=O)C1=O` (centres unmarked) [compound 26, 1,3-bis[(3-n-butyl-2-oxo-pyrrolidino)methyl]-2-thiourea], in data set [1], the “Dose mM/kg - mouse” value is given as greater than 2 mM/kg and the “Dose mg/kg” value was greater than 765.2 mg/kg. For the same compound, the responders at 100 µM, 100 µmol/kg in data set [3] worked out at 70%.
In the case of `O=C1CCCCCN1CNC(=S)NCN1CCCCCC1=O` [compound 36, 1,3-bis[(hexahydro-2-oxo-1H-azepin-1-yl)methyl]-2-thiourea], the minimal effective dose in data set [2] (setting [4]) was found to be 0.2 µmol/kg; in data set [2] (setting [5]), 0.065 mg/kg.
As to `O=C(NC(c1ccccc1)N1CCCC1=O)NC(c1ccccc1)N1CCCC1=O` (stereo not drawn) [compound 19, 1,3-bis[alpha-(2-oxo-pyrrolidino)-benzyl]-urea], in data set [1], the “Dose mM/kg - mouse” value is greater than 3 mM/kg and the “Dose mg/kg” value is on record as greater than 1219 mg/kg.
For `O=C(NCN1CC(c2ccc(Cl)cc2)CCC1=O)NCN1CC(c2ccc(Cl)cc2)CCC1=O` (centres unmarked) [compound 16, 1,3-bis[(5-p-chlorophenyl-2-oxo-piperidino)methyl]-urea] the same measures were greater than 3 mM/kg and 1510.2 mg/kg.
Take `O=C(NCN1CCCCCCC1=O)NCN1CCCCCCC1=O` [Compound No. 5, 1,3bis[(hexahydro-2-oxo-1(2H)-azocinyl)methyl]-urea]: the values for the minimal effective dose in data set [2] (setting [4]) and in data set [2] (setting [5]) were 1 µmol/kg and 0.338 mg/kg, respectively. Moreover, the “Dose mM/kg - mouse” value in data set [1] is 3 mM/kg. Further, the “Dose mg/kg” value in data set [1] came out at 1004 mg/kg.
For the compound `CCCCC1CCN(CNC(=O)NCN2CCC(CCCC)C2=O)C1=O` (centres unmarked) [compound 30, 1,3-bis[(3-n-butyl-2-oxo-pyrrolidino)methyl]-urea], in data set [1], the “Dose mM/kg - mouse” value is given as greater than 3 mM/kg and the “Dose mg/kg” value is greater than 10009.5 mg/kg.
For `O=C(NCN1C(=O)CCC1c1ccccc1)NCN1C(=O)CCC1c1ccccc1` (centres unmarked) [Compound No. 9, 1,3-bis[(2-oxo-5-phenyl-pyrrolidino)methyl]-urea] the same measures were 1 mM/kg and 406 mg/kg.
With `CCC1(c2ccccc2)CCN(CNC(=O)NCN2CCC(CC)(c3ccccc3)C2=O)C1=O` (centres unmarked) [compound 13, 1,3-bis[(3-ethyl-2-oxo-3-phenyl-pyrrolidino)methyl]-urea], in data set [1], the “Dose mM/kg - mouse” value is greater than 3 mM/kg and the “Dose mg/kg” value amounted to 1387.5 mg/kg.
In the same order, the values of `O=C(NCN1CC(c2ccccc2)CC1=O)NCN1CC(c2ccccc2)CC1=O` (centres unmarked) [compound 12, 1,3-bis[(2-oxo-4-phenyl-pyrrolidino)methyl]-urea] are greater than 3 mM/kg and 1215 mg/kg.
Regarding `CCCCC1CCN(CNC(=S)NCN2CCC(CCCC)C2=O)C1=O` (centres unmarked) [compound 27, 1,3-bis[(3-n-butyl-2-oxo-pyrrolidino)methyl]-2-thiourea], the minimal effective dose in data set [2] (setting [4]) was 0.01 µmol/kg; in data set [2] (setting [5]), 0.0038 mg/kg.
As to `CC1(C)CCC(=O)N1CNC(=O)NCN1C(=O)CCC1(C)C` [compound 35, 1,3bis[(5,5-dimethyl-2-oxo-pyrrolidine)methyl]-urea], in data set [2] (setting [4]), the minimal effective dose came out at 0.02 µmol/kg. Also, in data set [2] (setting [5]), the minimal effective dose was found to be 0.0062 mg/kg. In addition, in data set [1], the “Dose mM/kg - mouse” value was greater than 3 mM/kg and the “Dose mg/kg” value is greater than 930 mg/kg.
Turning to `O=C(NCN1CCCCCCCC1=O)NCN1CCCC1=O` [Compound No. 29, 1-[(octahydro-2-oxo-1H-azonin-1-yl)methyl]-3-[(2-oxo-pyrrolidino)methyl]-urea], in data set [1], the “Dose mM/kg - mouse” value came to 2 mM/kg and the “Dose mg/kg” value came to 620 mg/kg.
As for `O=C(NCN1CCCCCCCC1=O)NCN1CCCCCCCC1=O` [Compound No. 6, 1,3-bis[(octahydro-2-oxo-1H-azonin-1-yl)methyl]-urea], the minimal effective dose in data set [2] (setting [4]) is 5 µmol/kg. The minimal effective dose in data set [2] (setting [5]) turned out to be 1.83 mg/kg. Also, in data set [1], the “Dose mM/kg - mouse” value is greater than 3 mM/kg and the “Dose mg/kg” value worked out at 1099.5 mg/kg.
For `O=C1CCCN1CNC(=S)NCN1CCCC1=O` [compound 25, 1,3-bis[(2-oxo-pyrrolidino)methyl]-2-thiourea] the same measures were 1 µmol/kg, 0.268 mg/kg, greater than 3 mM/kg and greater than 804 mg/kg.
